# In US20080108569A1, “Compositions and Methods for Treating Diseases Associated With Phlpp” (The Regents of the University of California, priority 2005, published 2008):
# Columns and labels:
# PHLPP-1α = target: T1, PHLPP-1α (Homo sapiens, UniProt O60346); experiment: okadaic acid sensitivity of PHLPP-1α mediated dephosphorylation of Akt at Ser473 in 293T cells; assay type: cell-based; settings: OA 1 μM for 15 minutes, 293T cells transfected with HA-PHLPP-1α
# T1 construct: The full-length human PHLPP-1α cDNA was cloned by combining the following cDNA fragments; expressed in transfected cells; host or cells: 293T cells
# T1 sequence (O60346 1-1205 isoform O60346-2): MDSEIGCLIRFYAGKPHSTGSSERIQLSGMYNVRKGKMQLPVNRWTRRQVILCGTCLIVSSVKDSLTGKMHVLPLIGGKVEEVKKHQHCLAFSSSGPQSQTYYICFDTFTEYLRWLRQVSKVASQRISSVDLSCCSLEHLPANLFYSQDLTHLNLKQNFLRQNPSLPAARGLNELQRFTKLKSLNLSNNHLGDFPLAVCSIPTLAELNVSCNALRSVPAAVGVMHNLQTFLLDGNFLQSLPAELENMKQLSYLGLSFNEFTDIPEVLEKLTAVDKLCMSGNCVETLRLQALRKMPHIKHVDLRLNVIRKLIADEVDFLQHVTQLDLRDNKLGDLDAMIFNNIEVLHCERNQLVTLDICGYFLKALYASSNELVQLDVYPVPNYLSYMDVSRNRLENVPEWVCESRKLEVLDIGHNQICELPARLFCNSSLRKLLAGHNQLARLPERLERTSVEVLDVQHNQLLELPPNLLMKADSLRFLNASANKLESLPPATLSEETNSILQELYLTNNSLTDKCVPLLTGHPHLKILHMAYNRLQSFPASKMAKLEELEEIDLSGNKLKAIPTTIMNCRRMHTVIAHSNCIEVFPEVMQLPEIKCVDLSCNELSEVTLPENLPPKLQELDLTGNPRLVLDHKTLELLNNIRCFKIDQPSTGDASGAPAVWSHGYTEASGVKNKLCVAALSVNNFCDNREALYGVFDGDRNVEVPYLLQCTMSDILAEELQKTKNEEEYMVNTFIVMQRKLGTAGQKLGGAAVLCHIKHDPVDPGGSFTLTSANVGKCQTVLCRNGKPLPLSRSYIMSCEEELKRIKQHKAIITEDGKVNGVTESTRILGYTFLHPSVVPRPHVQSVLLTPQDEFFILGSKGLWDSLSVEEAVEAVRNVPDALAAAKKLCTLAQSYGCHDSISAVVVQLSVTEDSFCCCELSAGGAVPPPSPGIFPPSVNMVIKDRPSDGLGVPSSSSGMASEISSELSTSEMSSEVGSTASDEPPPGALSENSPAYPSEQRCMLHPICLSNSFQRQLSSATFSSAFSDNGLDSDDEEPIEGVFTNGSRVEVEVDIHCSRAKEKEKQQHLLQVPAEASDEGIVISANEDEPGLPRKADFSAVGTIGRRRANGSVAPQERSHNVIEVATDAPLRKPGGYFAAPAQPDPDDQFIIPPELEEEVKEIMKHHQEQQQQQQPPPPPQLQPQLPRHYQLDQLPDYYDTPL
# Experimental: FIG. 29. PHLPP-1α mediated-dephosphorylation of Akt at Ser473 is okadaic acid-insensitive. 293T cells transfected with HA-PHLPP-1α were serum starved overnight. The cells were then left untreated (lane 1), treated with insulin (100 nM) for 30 minutes (lane 2), treated with insulin for 30 minutes followed by okadaic acid (OA, 1 μM) for 15 minutes (lane 3), or treated with insulin for 30 minutes followed by OA for 15 minutes followed by LY294002 (LY, 30 μM) for 20 minutes (lane 4). Western blots showing phosphorylation of endogenous Akt as detected by P308 and P473 antibodies. Total Akt was detected using the anti-Akt antibody.
# MDA-MB-231 cells = experiment: apoptosis assay, sub-2N DNA by flow cytometry; assay type: cell-based; settings: co-expressed with PHLPP2
# Experimental: Apoptosis assays were performed as described previously (Brognard et al., 2001). Briefly, cells were transfected with different PHLPP expression constructs or siRNAs. In the case of gating for transfected cells, a GFP expression construct was co-transfected into the cells. Approximately 24 hours post-transfection, the cells were switched to low serum medium (DMEM plus 0.1% FBS) and allowed to grow for an additional 48 hours. For LY294002 (25 μM) treatment, the drug was added at the time when the cells were switched into the low serum medium. The cells were collected and stained with propidium iodide (25 μg/ml). Apoptotic cells were defined as sub-2N DNA containing cells. Quantification of apoptosis was obtained using flow cytometry analysis with a Becton Dickinson FACSort.
# Apoptotic assays were performed as described above. To determine G1/S ratios, cells were co-transfected with GFP and HA-PHLPP2 and incubated under high serum (10% FBS) conditions for 48 hrs and cells were gated based on GFP expression as described above. For BrdU incorporation assays, cells were transfected with 100 nM siRNA (si-1) and incubated for 48 hrs prior to performing assay following manufacturers protocol (Oncogene Research Products).
Molecule,sensitivity of PHLPP-1α mediated dephosphorylation of Akt at Ser473 (PHLPP-1α),rescue of the apoptosis induced by PHLPP2 (MDA-MB-231 cells)
C=C1[C@@H](O)[C@@H]2O[C@]3(CC[C@H](/C=C/[C@@H](C)[C@@H]4CC(C)=C[C@@]5(O[C@H](C[C@@](C)(O)C(=O)O)CC[C@H]5O)O4)O3)CC[C@H]2O[C@@H]1[C@@H](O)C[C@H](C)[C@H]1O[C@@]2(CCCCO2)CC[C@H]1C [okadaic acid],insensitive,–
"S473D: phosphomimetic and thus constitutively active Akt construct, resistant to dephosphorylation by PHLPP2",–,two-thirds
